Experimental data as given in article PMC2934701 (The Journal of Biological Chemistry, 2010).
Residue numbers refer to the chain shown, from its start.

Tests used:
Test in all cases: Fluo-4 calcium assay, HEK293T + Galpha16gust44
Format in all cases: cell-based
hTAS2R16 (ssr3-hTAS2R16) [1] = molecular target: T1, hTAS2R16 (ssr3-hTAS2R16) (Homo sapiens, UniProt Q9NYV7, F240L)
T1 sequence (Q9NYV7 1-291 F240L): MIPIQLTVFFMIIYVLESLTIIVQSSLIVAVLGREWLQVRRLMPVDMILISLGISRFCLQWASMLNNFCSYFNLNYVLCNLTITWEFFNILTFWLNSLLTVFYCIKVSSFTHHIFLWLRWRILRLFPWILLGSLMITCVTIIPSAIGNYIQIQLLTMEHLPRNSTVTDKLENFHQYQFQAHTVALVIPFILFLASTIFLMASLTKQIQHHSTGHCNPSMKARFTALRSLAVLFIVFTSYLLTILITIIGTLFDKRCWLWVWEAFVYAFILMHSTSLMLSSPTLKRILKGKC

hTAS2R16 (ssr3-hTAS2R16) [2] = molecular target: T2, hTAS2R16 (ssr3-hTAS2R16) (Homo sapiens, UniProt Q9NYV7, Q177E)
T2 sequence (Q9NYV7 1-291 Q177E): T1 sequence (Q9NYV7 1-291 F240L) with Q177E, L240F

hTAS2R16 (ssr3-hTAS2R16) [3] = molecular target: T3, hTAS2R16 (ssr3-hTAS2R16) (Homo sapiens, UniProt Q9NYV7, I243V)
T3 sequence (Q9NYV7 1-291 I243V): T1 sequence (Q9NYV7 1-291 F240L) with L240F, I243V

hTAS2R16 (ssr3-hTAS2R16) [4] = molecular target: T4, hTAS2R16 (ssr3-hTAS2R16) (Homo sapiens, UniProt Q9NYV7, F93A)
T4 sequence (Q9NYV7 1-291 F93A): T1 sequence (Q9NYV7 1-291 F240L) with F93A, L240F

hTAS2R16 (ssr3-hTAS2R16) [5] = molecular target: T5, hTAS2R16 (ssr3-hTAS2R16) (Homo sapiens, UniProt Q9NYV7, I243L)
T5 sequence (Q9NYV7 1-291 I243L): T1 sequence (Q9NYV7 1-291 F240L) with L240F, I243L

hTAS2R16 (ssr3-hTAS2R16) [6] = molecular target: T6, hTAS2R16 (ssr3-hTAS2R16) (Homo sapiens, UniProt Q9NYV7)
T6 sequence (Q9NYV7 1-291): T1 sequence (Q9NYV7 1-291 F240L) with L240F

hTAS2R16 (ssr3-hTAS2R16) [7] = molecular target: T7, hTAS2R16 (ssr3-hTAS2R16) (Homo sapiens, UniProt Q9NYV7, H181T)
T7 sequence (Q9NYV7 1-291 H181T): T1 sequence (Q9NYV7 1-291 F240L) with H181T, L240F

hTAS2R16 (ssr3-hTAS2R16) [8] = molecular target: T8, hTAS2R16 (ssr3-hTAS2R16) (Homo sapiens, UniProt Q9NYV7, W94Y)
T8 sequence (Q9NYV7 1-291 W94Y): T1 sequence (Q9NYV7 1-291 F240L) with W94Y, L240F

EC50 (hTAS2R16 (ssr3-hTAS2R16) [1]): > 30000 µM
EC50 (hTAS2R16 (ssr3-hTAS2R16) [2]): 220 µM
EC50 (hTAS2R16 (ssr3-hTAS2R16) [3]): 840 µM
EC50 (hTAS2R16 (ssr3-hTAS2R16) [4]): 11500 µM
EC50 (hTAS2R16 (ssr3-hTAS2R16) [5]): 500 µM
EC50 (hTAS2R16 (ssr3-hTAS2R16) [6]): 220 µM
EC50 (hTAS2R16 (ssr3-hTAS2R16) [7]): 1840 µM
EC50 (hTAS2R16 (ssr3-hTAS2R16) [8]): 1360 µM
Compound: OCc1ccccc1O[C@@H]1O[C@H](CO)[C@@H](O)[C@H](O)[C@H]1O [salicin]
